Data from patent US12370168B2 (scPharmaceuticals Inc., priority 2013, dated 2025).
Like-named read-outs stand apart in the source and are kept apart here.

Columns and labels:
[1] = 8 mg/mL; for Osmolality / [Furosemide] / pH: three months
[2] = Example 3 stability of 20 mg/mL furosemide Tris-buffered solutions, pH 6.7 to 8.5, ambient temperature; settings: Tris buffer pH 6.7 to 8.5, ambient temperature, over 48 hours
Procedure: Samples were stored at ambient temperature and subsequently analyzed after 24 and 48 hours of storage.

[3] = unbuffered
[4] = Example 4 short term storage stability of 8 mg/mL furosemide Tris-buffered solutions; settings: over 48 hours
Procedure: Upon preparation, samples were filtered through 0.2 μm nylon filters.
The osmolality values of 50 μL aliquots of each sample were measured by freezing point depression.
Aliquots of each sample were stored at each condition and subsequently filtered and analyzed after 24 and 48 hours of storage.

[5] = 25 mM Tris, nominal pH 7.0, 70° C.
[6] = 25 mM Tris, nominal pH 7.4, 70° C.
[7] = 25 mM Tris, nominal pH 8.0, 70° C.
[8] = 50 mM Tris, nominal pH 7.0, 70° C.
[9] = 50 mM Tris, nominal pH 7.4, 70° C.
[10] = 50 mM Tris, nominal pH 8.0, 70° C.
[11] = 100 mM Tris, nominal pH 7.0, 70° C.
[12] = 100 mM Tris, nominal pH 7.4, 70° C.
[13] = 100 mM Tris, nominal pH 8.0, 70° C.
[14] = 25, 50, 100 mM Tris, pH 7.0, 7.4, 8.0, 70° C., 3 months
[15] = Tris buffer pH 7.0, 7.5, 8.0, −20° C., 2° C.-8° C., 25° C., 40° C.

NS(=O)(=O)c1cc(C(=O)O)c(NCc2ccco2)cc1Cl [Furosemide, 4-chloro-2-(furan-2-ylmethylamino)-5-sulfamoyl-benzoic acid]
Osmolality [1, 5]: 308 mOsm/kg H2O
[Furosemide] [1, 5]: <0.002 mg/mL
pH [1, 5]: 4.44
Osmolality [1, 6]: 299 mOsm/kg H2O
[Furosemide] [1, 6]: <0.002 mg/mL
pH [1, 6]: 4.57
Osmolality [1, 7]: 297 mOsm/kg H2O
[Furosemide] [1, 7]: 1.16 mg/mL
pH [1, 7]: 5.26
Osmolality [1, 8]: 305 mOsm/kg H2O
[Furosemide] [1, 8]: <0.002 mg/mL
pH [1, 8]: 4.50
Osmolality [1, 9]: 311 mOsm/kg H2O
[Furosemide] [1, 9]: <0.002 mg/mL
pH [1, 9]: 4.73
Osmolality [1, 10]: 311 mOsm/kg H2O
[Furosemide] [1, 10]: 3.60 mg/mL
pH [1, 10]: 7.30
Osmolality [1, 11]: 306 mOsm/kg H2O
[Furosemide] [1, 11]: <0.002 mg/mL
pH [1, 11]: 4.54
Osmolality [1, 12]: 312 mOsm/kg H2O
[Furosemide] [1, 12]: 0.58 mg/mL
pH [1, 12]: 5.68
Osmolality [1, 13]: 303 mOsm/kg H2O
[Furosemide] [1, 13]: 3.67 mg/mL
pH [1, 13]: 7.56
change in furosemide concentration [1, 14]: decreased significantly
change in osmolality [1, 14]: slightly increased
change in pH [1, 14]: decreased significantly
color of samples [1, 14]: dark brown
change in furosemide concentration [2]: No decrease
pH deviation from the initial value [2]: ≤ 0.1 units
solution pH over time ([3]; 0.1 mg/mL and 8 mg/mL, adjusted to pH 8 to 9 with NaOH and HCl, monitored 72 hours): continually decrease
reproducibility of observed pH values ([3]; 8 mg/mL, pH 8.5, same equivalents of furosemide, acid and base): varied widely
change in furosemide concentration [4, 15]: No decrease
pH deviation from the initial value [4, 15]: ≤ 0.1 units
osmolality over time ([4]; Tris buffer): consistent
